Test results reported in US20150141523A1, “COMPOUNDS FOR USE IN THE TREATMENT OF AUTOIMMUNE INFLAMMATORY DISEASE” (Venantius Limited, priority 2012, published 2015).

Experiments:
[1] = test system: IL-2 secretion from Jurkat T cells; assay: IL-2 secretion from activated Jurkat T cells (ELISA); assay type: cell-based, human; settings: for IL-2 [ ]pg/ml (1) / IL-2 % Control (1): experiment (1); for IL-2 % Control (1) / IL-2 % Control (2) / IL-2 % Control (3): relative to DMSO 0.1%; for IL-2 [ ]pg/ml (2) / IL-2 % Control (2): experiment (2); for IL-2 [ ]pg/ml (3) / IL-2 % Control (3): experiment (3)
Method: The T cell line Jurkat 6.1 (ATCC) was used. Cells were pre-treated for 30 min with 1 μM or 10 μM of the respective compound and then stimulated with plate-bound anti-CD3 (BD Pharmingen) and anti-CD28 (AnCell). DMSO was used as vehicle control. The immunosuppressive agent Cyclosporine A was used as a control for inhibition of IL-2 production. After 24 hs the supernatant was collected and IL-2 secretion was measured by ELISA.
Jurkat T cells were cultured in RMPI-1640 medium containing 10 % Foetal Bovine Serum, Penicillin/Streptomycin and L-Glutamine in T-75cm2 flasks at 37° C. and 5 % CO2. Cells were seeded into new culture flasks at a density of 1-3×10^5 cells per ml and maintained at a density of 0.5−1×10^6 cells per ml.
(A) Anti-TCR/CD28-mediated activation of Jurkat cells: Experiments involving anti-TCR/CD28-mediated activation of Jurkat T lymphocytes were carried out on 24-well cell culture plates. The plates were coated with a 1/100 dilution of rabbit anti-mouse IgG in sterile PBS (1×) and incubated overnight at 4OC. Unbound antibody was aspirated and the wells were gently rinsed with warm sterile PBS. The PBS was aspirated and the wells were coated with a 1/100 dilution of anti-TCR antibody (OKT-3) and a 1/200 dilution of anti-CD28 antibody (both antibodies pre-mixed prior to addition to the plates) in sterile PBS. The plates were then incubated for 1-2 hours at 37° C. Unbound antibody was aspirated and the wells were gently rinsed with warm PBS. The PBS was left on the plate until the Jurkat cells were ready to be added to the plate. The Jurkat cells were harvested from the T-75cm2 cell culture flasks and resuspended at a density of 0.5×10^6 cells per ml. The compounds were dissolved at a specified stock concentration (see results section) and diluted to the required concentration by adding the drug to the cell suspension. The cells were then pre-incubated with the compounds or with an equivalent volume of drug vehicle control (DMSO) for 30 minutes prior to adding the cell suspension to the antibody-coated plates. Cyclosporine A (1 μM) was used as a positive control to inhibit IL-2 production from activated T cells and was preincubated with the 6 cells as described above in parallel. The cells were then incubated on the plates with the acti-TCR/CD28 antibodies for 24 hours at 37° C. and 5% CO2 in a humidified atmosphere. After 24 hours, the cell suspension was removed from the plates and the cells were pelleted by centrifugation. The cell culture supernatant was saved and analysed for secreted IL-2 by ELISA. The cell pellet was saved and cell viability was measured using Acridine Orange/Ethidium Bromide cell viability staining solution.
(B) PHA/PMA-mediated activation of Jurkat cells Jurkat cells were resuspended at a concentration of 0.5×10^6 cells per ml and the Pharmatrin compounds at the desired concentration or an equivalent volume of drug vehicle control (DMSO) were added to the cells and incubated for 30 minutes. Cyclosporine A (1 ∝M) was used as a positive control to inhibit IL-2 production from activated T cells and was preincubated with the cells as described above in parallel. PHA and PMA were added to the cell suspension (10 ∝g/ml and 10 ng/ml respectively) and the cells were plated onto uncoated 24-well plates. The cells were incubated on the plates for 24 hours at 37° C. and 5 % CO2 in a humidified atmosphere. After 24 hours, the cell suspension was removed from the plates and the cells were pelleted by centrifugation. The cell culture supernatant was saved and analysed for secreted IL-2 by ELISA.
The cell culture supernatants were analysed for IL-2 by ELISA (96-well plate format) using the Human IL-2 ELISA kit from R&D Systems Europe. This assay was carried out using the standard protocol outlined by the company. Samples and standards (recombinant human IL-2 provided by R&D Systems) were analysed in triplicate. […]

Balb/C mice = assay: Oxazolone contact hypersensitivity (CHS) mouse ear swelling; assay type: in vivo; settings: P>0.05
Method: Female Balb/C mice (30-40 gms) were sensitised on day 0 with 20 μl of 2% oxazolone in acetone on each ear (10 μl on the inner and outer aspects of both ears). All mice were challenged on day 5 with 20 μl of 2% oxazolone in acetone only on the right ear; again, 10 μl on both the inner and outer aspects of the ear. Immediately following this, the mice were treated with test compound. The test compound was administered in exactly the same way as the oxazolone, with 10 μl on each side of the right ear. […] For the […] group, acetone was administered. All animals were killed 24 hrs later and the percentage increase in ear swelling was calculated. This was done in two ways. The thickness of the unchallenged left ear and the challenged right ear were measured using a micrometer caliper (μm). The increase in weight of both ears was also measured using a 5 mm biopsy punch (mgs). The percentage increase in oedema was then calculated for both weight and thickness by expressing the difference between the unchallenged left ear and the challenged right ear as a percentage of the left ear control.

O[C@@H]1c2ccccc2C[C@]1(Cc1ccccc1)C1=Cc2ccccc2C1 (mixture of isomers) [Compound 5, (R,S and SR)2-Benzyl-2,3-dihydro-1H,1′H-2,2′-biinden-1-ol]
IL2 release from Jurkat cells [1]: inhibited IL2 release
IL-2 [ ]pg/ml (1) ([1]; 0.3 uM): 32.00 pg/mL
IL-2 % Control (1) ([1]; 0.3 uM): 156.86%
IL-2 [ ]pg/ml (2) ([1]; 0.3 uM): 87.25 pg/mL
IL-2 % Control (2) ([1]; 0.3 uM): 133.61%
IL-2 [ ]pg/ml (3) ([1]; 0.3 uM): 164.41 pg/mL
IL-2 % Control (3) ([1]; 0.3 uM): 124.97%
IL-2 [ ]pg/ml (1) ([1]; 1 uM): 21.85 pg/mL
IL-2 % Control (1) ([1]; 1 uM): 107.11%
IL-2 [ ]pg/ml (2) ([1]; 1 uM): 64.65 pg/mL
IL-2 % Control (2) ([1]; 1 uM): 99.00%
IL-2 [ ]pg/ml (3) ([1]; 1 uM): 127.84 pg/mL
IL-2 % Control (3) ([1]; 1 uM): 97.18%
IL-2 [ ]pg/ml (1) ([1]; 3 uM): 10.90 pg/mL
IL-2 % Control (1) ([1]; 3 uM): 53.43%
IL-2 [ ]pg/ml (2) ([1]; 3 uM): 83.25 pg/mL
IL-2 % Control (2) ([1]; 3 uM): 60.20%
IL-2 [ ]pg/ml (3) ([1]; 3 uM): 97.38 pg/mL
IL-2 % Control (3) ([1]; 3 uM): 74.02%
IL-2 [ ]pg/ml (1) ([1]; 10 uM): 8.75 pg/mL
IL-2 % Control (1) ([1]; 10 uM): 42.89%
IL-2 [ ]pg/ml (2) ([1]; 10 uM): 63.80 pg/mL
IL-2 % Control (2) ([1]; 10 uM): 97.70%
IL-2 [ ]pg/ml (3) ([1]; 10 uM): 70.72 pg/mL
IL-2 % Control (3) ([1]; 10 uM): 53.76%
IL-2 [ ]pg/ml (1) ([1]; 30 uM): 16.25 pg/mL
IL-2 % Control (1) ([1]; 30 uM): 79.66%
IL-2 [ ]pg/ml (2) ([1]; 30 uM): 5.75 pg/mL
IL-2 % Control (2) ([1]; 30 uM): 8.81%
IL-2 [ ]pg/ml (3) ([1]; 30 uM): 6.69 pg/mL
IL-2 % Control (3) ([1]; 30 uM): 5.08%
IL-2 [ ]pg/ml (1) ([1]; 100 uM): -10.40 pg/mL
IL-2 % Control (1) ([1]; 100 uM): −50.98%
IL-2 [ ]pg/ml (2) ([1]; 100 uM): -13.05 pg/mL
IL-2 % Control (2) ([1]; 100 uM): −19.98%
IL-2 [ ]pg/ml (3) ([1]; 100 uM): 0.28 pg/mL
IL-2 % Control (3) ([1]; 100 uM): 0.21%
effect on oxazolone mouse ear swelling (Balb/C mice): no significant effect

O[C@H]1c2ccccc2C[C@]1(Cc1ccccc1)C1=Cc2ccccc2C1 (mixture of isomers) [Compound 6, (S,S and RR)2-Benzyl-2,3-dihydro-1H,1′H-2,2′-biinden-1-ol]
IL2 release from Jurkat cells [1]: inhibited IL2 release
IL-2 [ ]pg/ml (1) ([1]; 0.3 uM): 63.72 pg/mL
IL-2 % Control (1) ([1]; 0.3 uM): 87.26%
IL-2 [ ]pg/ml (2) ([1]; 0.3 uM): 74.50 pg/mL
IL-2 % Control (2) ([1]; 0.3 uM): 114.09%
IL-2 [ ]pg/ml (3) ([1]; 0.3 uM): 101.75 pg/mL
IL-2 % Control (3) ([1]; 0.3 uM): 77.34%
IL-2 [ ]pg/ml (1) ([1]; 1 uM): 58.72 pg/mL
IL-2 % Control (1) ([1]; 1 uM): 80.41%
IL-2 [ ]pg/ml (2) ([1]; 1 uM): 51.60 pg/mL
IL-2 % Control (2) ([1]; 1 uM): 79.02%
IL-2 [ ]pg/ml (3) ([1]; 1 uM): 112.44 pg/mL
IL-2 % Control (3) ([1]; 1 uM): 85.47%
IL-2 [ ]pg/ml (1) ([1]; 3 uM): 47.83 pg/mL
IL-2 % Control (1) ([1]; 3 uM): 65.50%
IL-2 [ ]pg/ml (2) ([1]; 3 uM): 29.15 pg/mL
IL-2 % Control (2) ([1]; 3 uM): 44.64%
IL-2 [ ]pg/ml (3) ([1]; 3 uM): 104.44 pg/mL
IL-2 % Control (3) ([1]; 3 uM): 79.39%
IL-2 [ ]pg/ml (1) ([1]; 10 uM): 27.72 pg/mL
IL-2 % Control (1) ([1]; 10 uM): 37.96%
IL-2 [ ]pg/ml (2) ([1]; 10 uM): 36.15 pg/mL
IL-2 % Control (2) ([1]; 10 uM): 55.36%
IL-2 [ ]pg/ml (3) ([1]; 10 uM): 75.19 pg/mL
IL-2 % Control (3) ([1]; 10 uM): 57.15%
IL-2 [ ]pg/ml (1) ([1]; 30 uM): 4.72 pg/mL
IL-2 % Control (1) ([1]; 30 uM): 6.47%
IL-2 [ ]pg/ml (2) ([1]; 30 uM): 47.60 pg/mL
IL-2 % Control (2) ([1]; 30 uM): 72.89%
IL-2 [ ]pg/ml (3) ([1]; 30 uM): 16.47 pg/mL
IL-2 % Control (3) ([1]; 30 uM): 12.52%
IL-2 [ ]pg/ml (1) ([1]; 100 uM): -10.11 pg/mL
IL-2 % Control (1) ([1]; 100 uM): −13.85%
IL-2 [ ]pg/ml (2) ([1]; 100 uM): -19.75 pg/mL
IL-2 % Control (2) ([1]; 100 uM): −30.25%
IL-2 [ ]pg/ml (3) ([1]; 100 uM): 1.97 pg/mL
IL-2 % Control (3) ([1]; 100 uM): 1.50%
effect on oxazolone mouse ear swelling (Balb/C mice): no significant effect
